Measurements as given in patent publication US12492173B2, “Herbicidal substituted N-tetrazolyl aryl carboxamides” (Bayer Aktiengesellschaft, priority 2019, dated 2025).

Columns and labels:
Assay type in all cases: in vivo
[1] = test system: Amaranthus retroflexus; assay: Post-emergence herbicidal action, AMARE; design: key: % herbicidal action vs untreated; 100 = plants died, 0 = like control
How it was run: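 Greenhouse post-emergence test: weeds sown in sandy loam were sprayed once at one leaf, 2 to 3 weeks from sowing, with aqueous WP or EC preparations carrying 0.2% wetting agent. Effect is scored visually after about 3 weeks.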

[2] = test system: Setaria viridis; assay: Pre-emergence herbicidal action, SETVI; design: key to Herbicidal action against SETVI: % activity: 100 = plants have died, 0 = like control plants; conditions: for herbicidal activity SETVI / herbicidal action SETVI: dosage 320 g/ha; for herbicidal activity SETVI: scored visually after 3 weeks vs untreated controls (100% = plants have died)
How it was run: (§1)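 Percent damage, assessed visually after 3 weeks and referenced to untreated controls, reflects a pre-emergence treatment. Spray liquid equated to 600 to 800 l/ha with 0.2% wetting agent, applied to the covering soil over seeds in sandy loam.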

[3] = test system: Veronica persica; assay: Pre-emergence herbicidal action, VERPE; design: key to Herbicidal action against VERPE: % activity: 100 = plants have died, 0 = like control plants; conditions: for herbicidal activity VERPE / herbicidal action VERPE: dosage 320 g/ha; for herbicidal activity VERPE: scored visually after 3 weeks vs untreated controls (100% = plants have died)
How it was run: as §1

[4] = test system: Echinochloa crus-galli; assay: Pre-emergence herbicidal action, ECHCG; design: key to Herbicidal action against ECHCG: % activity: 100 = plants have died, 0 = like control plants; conditions: for herbicidal activity ECHCG / herbicidal action ECHCG: dosage 320 g/ha; for herbicidal activity ECHCG: scored visually after 3 weeks vs untreated controls (100% = plants have died); for Herbicidal action against ECHCG: comparative experiment, 20 g of a.i./ha
How it was run: as §1

[5] = test system: Stellaria media; assay: Pre-emergence herbicidal action, STEME; design: key to Herbicidal action against STEME: % activity: 100 = plants have died, 0 = like control plants; conditions: for herbicidal activity STEME / herbicidal action STEME: dosage 320 g/ha; for herbicidal activity STEME: scored visually after 3 weeks vs untreated controls (100% = plants have died); for Herbicidal action against STEME: comparative experiment, 20 g of a.i./ha
How it was run: as §1

[6] = comparative experiment, 20 g of a.i./ha

Row | Structure (SMILES) | herbicidal action AMARE ([1]; post-emergence, dosage 80 g/ha) | herbicidal activity SETVI [2] | herbicidal activity VERPE [3] | herbicidal activity ECHCG [4] | herbicidal activity STEME [5] | herbicidal action AMARE ([1]; Dosage 80 g/ha) | herbicidal action SETVI [2] | herbicidal action VERPE [3] | herbicidal action ECHCG [4] | herbicidal action STEME [5] | Herbicidal action against AMARE ([1]; comparative experiment, post-emergence, 5 g of a.i./ha) | Herbicidal action against ECHCG [4] | Herbicidal action against STEME [5] | Herbicidal action against SETVI [2, 6] | Herbicidal action against VERPE [3, 6]
1 | Cn1nnnc1NC(=O)c1ccc(C(F)(F)F)c(CS(=O)(=O)C2CC2)c1Cl [Example 1-304] | 100% | 100% | 100% | 100% | 100% | – | – | – | – | – | – | – | – | – | –
2 | CCn1nnnc1NC(=O)c1ccc(C(F)(F)F)c(CS(=O)(=O)CC)c1Cl [Example 2-301] | – | – | – | – | – | 80 | 100% | 100% | 100% | 80% | – | – | – | – | –
3 | CCSCc1c(C(F)(F)F)ccc(C(=O)Nc2nnnn2CC)c1Cl [Example 2-299] | 90% | 100% | 100% | 100% | 100% | – | – | – | – | – | – | – | – | – | –
4 | CSCc1c(C(F)F)ccc(C(=O)Nc2nnnn2C)c1Cl [Example 1-320] | – | 100% | 100% | 100% | 90% | 100 | – | – | – | – | 100 | 100 | 90 | – | –
5 | C=CCSCc1c(C(F)(F)F)ccc(C(=O)Nc2nnnn2CCC)c1Cl [Example 3-308] | – | 100% | 100% | 100% | 100% | 100 | – | – | – | – | – | – | – | – | –
6 | CCCn1nnnc1NC(=O)c1ccc(C(F)(F)F)c(CSCC(F)(F)F)c1Cl [Example 3-311] | – | – | – | – | – | 100 | 100% | 100% | 80% | 90% | – | – | – | – | –
7 | CCn1nnnc1NC(=O)c1ccc(C(F)(F)F)c(CSCCOC)c1Cl [Example 2-305] | 100% | 100% | 100% | 100% | 100% | – | – | – | – | – | – | – | – | – | –
8 | Cn1nnnc1NC(=O)c1ccc(I)c(CS(C)(=O)=O)c1Cl [Example 1-364] | – | 100% | 100% | 100% | 100% | 100 | – | – | – | – | – | 90 | 90 | 100 | 100
9 | CCCn1nnnc1NC(=O)c1ccc(I)c(C[S+](C)[O-])c1Cl (centres unmarked) [Example 3-363] | – | – | – | – | – | 100 | 100% | 90% | 100% | 100% | – | – | – | – | –
10 | CC[S+]([O-])Cc1c(C(F)(F)F)ccc(C(=O)Nc2nnnn2C)c1Cl (racemic) [Example 1-300] | 100% | 100% | 100% | 100% | 100% | – | – | – | – | – | – | – | – | – | –
11 | CCCn1nnnc1NC(=O)c1ccc(C(F)F)c(CS(C)(=O)=O)c1Cl [Example 3-322] | – | 100% | 100% | 100% | 100% | 90 | – | – | – | – | – | – | – | – | –
12 | CCn1nnnc1NC(=O)c1ccc(C(F)(F)F)c(C[S+]([O-])CC)c1Br (centres unmarked) [Example 2-384] | 90% | 100% | 100% | 100% | 100% | – | – | – | – | – | – | – | – | – | –
13 | CCn1nnnc1NC(=O)c1ccc(C(F)F)c(C[S+]([O-])CC)c1Cl (centres unmarked) [Example 2-324] | 100% | 100% | 100% | 100% | 100% | – | – | – | – | – | – | – | – | – | –
14 | CCn1nnnc1NC(=O)c1ccc(C(F)(F)F)c(CSCC(F)(F)F)c1Cl [Example 2-311] | – | 100% | 90% | 100% | 100% | 100 | – | – | – | – | – | – | – | – | –
